Paper PMC7802075 (ACS Infectious Diseases, 2020)
Counter-ions that a name gives are not always drawn.

Legend:
[1] = system: wild type Leishmania major promastigotes; assay type: cell-based
[2] = in vivo; cited from earlier work
[3] = in vivo; cited from earlier work; remark: listed apart in the source
[4] = in vivo; cited from earlier work; remark: listed apart in the source
[5] = system: L. amazonensis intracellular amastigotes in BMDM from C57BL/6 WT or P2X7R KO mice
[6] = system: BMDM uninfected macrophages, nitrite formation; experiment: Nitric oxide assay (Griess) in uninfected macrophages; assay type: cell-based, mouse; details: serial dilutions, 48 h
Experimental: The release of nitric oxide was measured in the culture supernatant by the Griess method, as described previously.[81] The absorbance was measured at 570 nm, and the nitrite concentration was determined using a standard curve of sodium nitrite (0 to 50 μM). The positive control was macrophages incubated with 1 μg mL^–1 LPS (Sigma-Aldrich, Brazil) and 10% conditioned medium of lymphocytes as a source of IFN. Negative controls were cells treated with DMSO and untreated cells.

SMILES: CN1CCC[C@@H]1CCO[C@](C)(c1ccccc1)c1ccc(Cl)cc1 [clemastine fumarate 1, clemastine fumarate]
- cell density [1]: no change in cell density
- oral LD50 (rat) [2]: 3550 mg.kg^–1
- oral LD50 (mouse) [3]: 730 mg.kg^–1
- volume of distribution [4]: 9.5 ± 3.8 L kg^–1
- effect of addition of extracellular ATP, P2X7R KO macrophages [5]: did not show any effect
- nitrite formation (NO levels) [6]: no significant effect
- nitrite formation (NO levels) ([6]; listed as clemastine): statistically non-significant
